Results reported in patent US8017656B2, “Organic sulfur compounds and use thereof” (Sumitomo Chemical Company, Limited, priority 2005, dated 2011).
Read-outs that look alike come from different tables or passages of the source.

Tests used:
Type in all cases: in vivo
[1] = test system: Musca domestica; assay: Test Example 2: filter paper/sucrose bait test against housefly imagoes; settings: read-out: rate of dead pests
Method: (§1) On the bottom of a polyethylene cup having a diameter of 5.5 cm, a filter paper having the same diameter was laid, and 0.7 ml of the above test solution was added dropwise on the filter paper, followed by putting 30 mg of sucrose on it uniformly as a bait. Ten female Musca domestica imagoes were set free in the polyethylene cup and covered it with a lid. After 24 hours, the number of surviving and dead Musca domestica was examined and the rate of dead pests was calculated.

[2] = test system: Blattella germanica; assay: Test Example 3: filter paper/sucrose bait test against German cockroach imagoes; settings: for pest or weed control at 500 ppm: Blattella germanica, 144 h, read-out: rate of dead pests
Method: as §1, with “Two male Blattella germanica” for “Ten female Musca domestica”, “6 days,” for “24 hours,”, “Blattella germanica” for “Musca domestica”

[3] = test system: Culex pipiens pallens; assay: Test Example 4: mosquito larvae test in treated water; settings: 24 h, read-out: rate of dead pests
Method: 0.7 ml of above test solution was added to 100 ml of ion exchanged water (active ingredient concentration: 3.5 ppm). Twenty last-instar larvae of Culex pipiens pallens were set free in the solution. After one day, the number of surviving and dead Culex pipiens pallens was examined and the rate of dead pests was calculated.

[4] = 500 ppm test solution, 0.7 ml on filter paper with 30 mg sucrose, ten female imagoes, after 24 hours
[5] = 500 ppm test solution, 0.7 ml on filter paper with 30 mg sucrose, two male imagoes, after 6 days
[6] = active ingredient concentration 3.5 ppm in water, twenty last-instar larvae, after one day

Q: With COC(=O)C(C)(CCC(F)(F)C(F)(F)F)S(=O)(=O)CCC(F)(F)C(F)(F)F (stereo not drawn) [(30)] as the molecule, how does the pest or weed control at 500 ppm [1, 4] read?
A: ≥ 70%

Q: What about the pest or weed control at 500 ppm [2, 5] of the same molecule?
A: 100%

Q: What about the pest or weed control at 3.5 ppm [3, 6] of the same molecule?
A: ≥ 90%

Q: With NC(=O)C(CCC(F)(F)C(F)(F)F)S(=O)(=O)CCC(F)(F)F (stereo not drawn) [(31)] as the molecule, how does the pest or weed control at 500 ppm [1, 4] read?
A: ≥ 70%

Q: What about the pest or weed control at 500 ppm [2, 5] of the same molecule?
A: 100%

Q: What about the pest or weed control at 3.5 ppm [3, 6] of the same molecule?
A: ≥ 90%

Q: Which pest or weed control at 500 ppm [1, 4] does the source give for CNC(=O)C(CCC(F)(F)C(F)(F)F)S(=O)(=O)CCC(F)(F)F (stereo not drawn) [(32)] here?
A: ≥ 70%

Q: What about the pest or weed control at 500 ppm [2, 5] of the same molecule?
A: 100%

Q: What about the pest or weed control at 3.5 ppm [3, 6] of the same molecule?
A: ≥ 90%

Q: CN(C)C(=O)C(CCC(F)(F)C(F)(F)F)S(=O)(=O)CCC(F)(F)F (stereo not drawn) [(33)] was tested. Which pest or weed control at 500 ppm [1, 4] did it give?
A: ≥ 70%

Q: And the pest or weed control at 500 ppm [2, 5]?
A: 100%

Q: What about the pest or weed control at 3.5 ppm [3, 6] of the same molecule?
A: ≥ 90%

Q: Which results are given for CC(CCC(F)(F)C(F)(F)F)(C(N)=O)S(=O)(=O)CCC(F)(F)F (stereo not drawn) [(34)]?
A: pest or weed control at 500 ppm [1, 4]: ≥ 70%; pest or weed control at 500 ppm [2, 5]: 100%; pest or weed control at 3.5 ppm [3, 6]: ≥ 90%

Q: Which results are given for CNC(=O)C(C)(CCC(F)(F)C(F)(F)F)S(=O)(=O)CCC(F)(F)F (stereo not drawn) [(35)]?
A: pest or weed control at 500 ppm [1, 4]: ≥ 70%; pest or weed control at 500 ppm [2, 5]: 100%; pest or weed control at 3.5 ppm [3, 6]: ≥ 90%

Q: What does the source list for CN(C)C(=O)C(C)(CCC(F)(F)C(F)(F)F)S(=O)(=O)CCC(F)(F)F (stereo not drawn) [(36)]?
A: pest or weed control at 500 ppm [1, 4]: ≥ 70%; pest or weed control at 500 ppm [2, 5]: 100%; pest or weed control at 3.5 ppm [3, 6]: ≥ 90%

Q: What does the source list for CCNC(=O)C(C)(CCC(F)(F)C(F)(F)F)S(=O)(=O)CCC(F)(F)F (stereo not drawn) [(37)]?
A: pest or weed control at 500 ppm [1, 4]: ≥ 70%; pest or weed control at 500 ppm [2, 5]: 100%; pest or weed control at 3.5 ppm [3, 6]: ≥ 90%

Q: For CCC(CCC(F)(F)C(F)(F)F)(C(N)=O)S(=O)(=O)CCC(F)(F)F (stereo not drawn) [(38)], which pest or weed control at 500 ppm [1, 4] is on record?
A: ≥ 70%

Q: And the pest or weed control at 500 ppm [2, 5]?
A: 100%

Q: What about the pest or weed control at 3.5 ppm [3, 6] of the same molecule?
A: ≥ 90%

Q: Which pest or weed control at 500 ppm [1, 4] does the source give for N#CC(CCCC(F)(F)F)S(=O)(=O)CCC(F)(F)F (stereo not drawn) [(39)] here?
A: ≥ 70%

Q: And the pest or weed control at 500 ppm [2, 5]?
A: 100%

Q: What about the pest or weed control at 3.5 ppm [3, 6] of the same molecule?
A: ≥ 90%

Q: For CCCNC(=O)C(C)(CCC(F)(F)C(F)(F)F)S(=O)(=O)CCC(F)(F)F (stereo not drawn) [(40)], which pest or weed control at 500 ppm [1, 4] is on record?
A: ≥ 70%

Q: What about the pest or weed control at 500 ppm [2, 5] of the same molecule?
A: 100%

Q: And the pest or weed control at 3.5 ppm [3, 6]?
A: ≥ 90%

Q: COC(=O)C(CCC(F)(F)C(F)(F)F)S(=O)(=O)CCC(F)(F)C(F)(F)C(F)(F)F (stereo not drawn) [(42)] was tested. Which pest or weed control at 3.5 ppm [3] did it give?
A: ≥ 90%

Q: For COC(=O)C(C)(CCC(F)(F)C(F)(F)F)S(=O)(=O)CCC(F)(F)C(F)(F)C(F)(F)F (stereo not drawn) [(43)], which pest or weed control at 500 ppm ([1]; 24 h) is on record?
A: ≥ 70%

Q: For COC(=O)C(C)(CCCC(F)(F)F)S(=O)(=O)CCC(F)(F)F (stereo not drawn) [(44)], which pest or weed control at 500 ppm [1, 4] is on record?
A: ≥ 70%

Q: What about the pest or weed control at 500 ppm [2, 5] of the same molecule?
A: 100%

Q: For N#CC(CCC(F)(F)C(F)(F)F)SCCC(F)(F)F (stereo not drawn) [(47)], which “rate of dead pests” value [2, 5] is on record?
A: 100%

Q: With COC(=O)C(CCC(F)(F)C(F)(F)C(F)(F)F)S(=O)(=O)CCC(F)(F)C(F)(F)F (stereo not drawn) [(51)] as the molecule, how does the pest or weed control at 3.5 ppm [3] read?
A: ≥ 90%

Q: How did the pest or weed control at 500 ppm ([1]; 24 h) turn out when NC(=O)C(CCC(F)(F)C(F)(F)C(F)(F)F)S(=O)(=O)CCC(F)(F)C(F)(F)F (stereo not drawn) [(55)] was run?
A: ≥ 70%

Q: What about the pest or weed control at 500 ppm [2] of the same molecule?
A: 100%

Q: NC(=O)C(F)(CCC(F)(F)C(F)(F)F)S(=O)(=O)CCC(F)(F)F (stereo not drawn) [(64)] was tested. Which pest or weed control at 500 ppm [1, 4] did it give?
A: ≥ 70%

Q: What about the pest or weed control at 500 ppm [2, 5] of the same molecule?
A: 100%

Q: With COC(=O)C(F)(CCC(F)(F)C(F)(F)F)S(=O)(=O)CCC(F)(F)C(F)(F)C(F)(F)F (stereo not drawn) [(66)] as the molecule, how does the pest or weed control at 500 ppm ([1]; 24 h) read?
A: ≥ 70%

Q: How did the pest or weed control at 3.5 ppm [3, 6] turn out when COC(=O)C(CCC(F)(F)F)S(=O)(=O)CCC(F)(F)F (stereo not drawn) [(76)] was run?
A: ≥ 90%

Q: Which pest or weed control at 500 ppm [2, 5] does the source give for COC(=O)C(CCCC(F)(F)F)S(=O)(=O)CCC(F)(F)F (stereo not drawn) [(78)] here?
A: 100%

Q: What does the source list for COC(=O)C(CCC(F)(F)C(F)(F)C(F)(F)F)S(=O)(=O)CCC(F)(F)F (stereo not drawn) [(82)]?
A: pest or weed control at 500 ppm ([1]; 24 h): ≥ 70%; pest or weed control at 3.5 ppm [3]: ≥ 90%

Q: For COC(=O)C(Cl)(CCC(F)(F)C(F)(F)C(F)(F)F)S(=O)(=O)CCC(F)(F)F (stereo not drawn) [(83)], which pest or weed control at 3.5 ppm [3] is on record?
A: ≥ 90%

Q: For COC(=O)C(CCC(F)(F)F)S(=O)(=O)CCC(F)(F)C(F)(F)F (stereo not drawn) [(92)], which pest or weed control at 3.5 ppm [3, 6] is on record?
A: ≥ 90%

Q: COC(=O)C(CCC(F)(F)C(F)(F)C(F)(F)F)S(=O)(=O)CCC(F)(F)C(F)(F)F (stereo not drawn) [(95)] was tested. Which pest or weed control at 500 ppm ([1]; 24 h) did it give?
A: ≥ 70%

Q: How did the pest or weed control at 500 ppm [1, 4] turn out when COC(=O)C(Cl)(CCCCC(F)(F)F)S(=O)(=O)CCC(F)(F)F (stereo not drawn) [(99)] was run?
A: ≥ 70%

Q: How did the pest or weed control at 500 ppm [1, 4] turn out when COC(=O)C(CCCC(F)(F)C(F)(F)F)S(=O)(=O)CCC(F)(F)F (stereo not drawn) [(101)] was run?
A: ≥ 70%

Q: And the pest or weed control at 500 ppm [2, 5]?
A: 100%
